Consider 14 compounds from patent publication US12441768B2, “Compositions and methods for treating endometriosis” (EndoMet Biosciences, Inc., priority 2018, dated 2025).

The experiment concerns the target T1, β-catenin (Homo sapiens, UniProt P35222).
T1 sequence (P35222 1-781): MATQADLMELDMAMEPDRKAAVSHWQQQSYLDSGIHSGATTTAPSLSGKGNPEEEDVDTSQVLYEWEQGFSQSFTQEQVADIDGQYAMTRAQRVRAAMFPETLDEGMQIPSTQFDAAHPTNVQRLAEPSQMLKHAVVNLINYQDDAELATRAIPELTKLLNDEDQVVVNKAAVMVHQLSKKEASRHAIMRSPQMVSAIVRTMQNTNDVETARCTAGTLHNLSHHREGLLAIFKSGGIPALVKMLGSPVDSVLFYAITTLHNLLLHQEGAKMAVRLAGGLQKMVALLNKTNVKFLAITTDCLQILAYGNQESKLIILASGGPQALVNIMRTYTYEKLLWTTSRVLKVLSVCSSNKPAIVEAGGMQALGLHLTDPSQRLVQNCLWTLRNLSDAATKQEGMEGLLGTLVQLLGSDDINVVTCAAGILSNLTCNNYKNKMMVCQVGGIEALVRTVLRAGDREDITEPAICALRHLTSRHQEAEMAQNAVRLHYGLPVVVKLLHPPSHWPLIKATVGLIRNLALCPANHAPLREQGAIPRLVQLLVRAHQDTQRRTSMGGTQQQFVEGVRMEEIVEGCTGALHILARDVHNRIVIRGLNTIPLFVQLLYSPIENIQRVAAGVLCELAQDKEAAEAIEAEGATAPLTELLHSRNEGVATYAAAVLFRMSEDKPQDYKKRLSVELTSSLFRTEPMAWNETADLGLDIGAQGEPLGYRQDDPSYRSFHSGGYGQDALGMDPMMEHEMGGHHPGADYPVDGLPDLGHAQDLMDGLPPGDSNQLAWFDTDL
The experiment in a line: KD50 measurement using competitive fluorescence polarization (FP) with labelled TCF4. It is filed as binding. The settings on record: fluorescence polarization, β-catenin; for Kd: read-out: β-Cat FP KD. An excerpt: Fluorescence polarization (FP) is another method used to analyze protein-ligand interactions. This methodology measures the change in fluorescence light emitted by a labelled compound free vs. conjugated to another compound in solution. Upon binding of the fluorescent molecule to a complex, polarization increases because of limited rotation of the fluorescent tracer. Competitive FP is often utilized in drug screens as it is formatted for high throughput screens in a plate format. This immunoassay is performed by introducing a non-conjugated drug to compete for binding to the labelled competitor-ligand complex, leading to a reduction in polarization. TCF4 protein is utilized for the competitive assay as (1) this protein influences the full activation of the Wnt pathway and (2) shares homology with the β-catenin inhibitors. Exemplary methodology is described in Example 13. Data were analyzed and plotted in Microsoft Excel (Microsoft, Redmond, WA).
5 nM of labelled TCF4 protein was added to solution of 100 nM of β-catenin and incubated at room temperature in 96-well plates (Greiner 96 Flat transparent plates, Millipore Sigma, Carlsbad CA). Varying concentrations of β-catenin inhibitor candidate (SEQ ID NO: 404) were then added in a series of serial dilutions from 10 nM to 30 uM of inhibitor in different wells of the plate. The fluorescence polarization was read by Infinite M1000 (Tecan, Baldwin Park CA) at excitation wavelength of 470 nm and measured at emission wavelength of 520 nm. […] The experiments were performed three times and data were analyzed and plotted in Microsoft Excel (Microsoft, Redmond, WA).

Where a SMILES comes first, the peptide text is derived from it.

For the compound `CC[C@H](C)[C@H](NC(=O)[C@H](CO)NC(=O)[C@H](CCC(=O)O)NC(=O)[C@@H]1CCCN1C(=O)[C@H](CC(C)C)NC(=O)[C@H](CCCNC(=N)N)NC(=O)CCNC(C)=O)C(=O)N[C@@H](CC(C)C)C(=O)N[C@@H](CC(=O)O)C(=O)N[C@@H](CCC(=O)O)C(=O)N[C@@H](Cc1c[nH]cn1)C(=O)N[C@@H](Cc1c[nH]c2ccccc12)C(=O)N[C@@H](CCC(N)=O)C(=O)N[C@@H](CCCNC(=N)N)C(=O)N[C@H](C(=O)N[C@@H](Cc1c[nH]c2ccccc12)C(=O)N1CCC[C@H]1C(N)=O)C(C)C` [compound 411] (HELM PEPTIDE1{[ac].[bAla].R.L.P.E.S.I.L.D.E.H.W.Q.R.V.W.P.[am]}$$$$V2.0), the “β-Cat FP Hill slope” value is 0.7 and the Kd lay within 1000 to 10000 nM.
`CC[C@H](C)[C@@H]1NC(=O)[C@H](CC(C)C)NC(=O)[C@H](Cc2ccccc2)NC(=O)[C@H](Cc2c[nH]c3ccccc23)NC(=O)[C@@H](N)CCCCNC(=O)CC[C@@H](C(=O)O)NC(=O)[C@H](Cc2c[nH]c3ccccc23)NC(=O)[C@H](Cc2ccccc2)NC(=O)[C@H](CO)NC1=O` [compound 226] (HELM PEPTIDE1{K.W.F.L.I.S.F.W.E}$PEPTIDE1,PEPTIDE1,1:R3-9:R3$$$V2.0): the “β-Cat FP Hill slope” value is on record as 0.69 and the Kd fell in the range of 1000 to 10000 nM.
Taken in the same sequence, the figures for `CC[C@H](C)[C@@H]1NC(=O)[C@@H](NC(=O)[C@H](CCC(N)=O)NC(=O)[C@H](C)N(C)C(C)=O)CCCCNC(=O)CC[C@@H](C(=O)N[C@@H](Cc2c[nH]cn2)C(=O)N[C@H](C(=O)N[C@@H](CCC(N)=O)C(=O)N[C@@H](CCCNC(=N)N)C(=O)N[C@H](C(=O)N[C@@H](Cc2c[nH]c3ccccc23)C(=O)NCC(N)=O)C(C)C)C2CCCCC2)NC(=O)[C@H](CC(N)=O)NC(=O)[C@H](CC(C)C)NC1=O` [compound 433] (HELM PEPTIDE1{[ac].[meA].Q.K.I.L.N.E.H.[O=C([C@@H](N[*:1])C1CCCCC1)[*:2]].Q.R.V.W.G.[am]}$PEPTIDE1,PEPTIDE1,4:R3-8:R3$$$V2.0) were 0.7 and 400 to 1000 nM.
Consider `CCCCCCCCCCCC(=O)N[C@@H](Cc1c[nH]c2ccccc12)C(=O)N(C)[C@@H](C)C(=O)N[C@@H](CCC(N)=O)C(=O)N[C@H]1CCCCNC(=O)C[C@@H](C(=O)N[C@@H](Cc2c[nH]cn2)C(=O)N[C@H](C(=O)N[C@@H](CCC(N)=O)C(=O)N[C@@H](C)C(=O)N[C@H](C(=O)N[C@@H](Cc2c[nH]c3ccccc23)C(N)=O)C(C)C)C2CCCCC2)NC(=O)[C@H](CC(N)=O)NC(=O)[C@H](CC(C)C)NC(=O)[C@H]([C@@H](C)CC)NC1=O` [compound 459] (HELM PEPTIDE1{[CCCCCCCCCCCC(=O)[*:2]].W.[meA].Q.K.I.L.N.D.H.[O=C([C@@H](N[*:1])C1CCCCC1)[*:2]].Q.A.V.W.[am]}$PEPTIDE1,PEPTIDE1,5:R3-9:R3$$$V2.0), for which the Kd is less than 400 nM.
On to `CC[C@H](C)[C@@H]1NC(=O)[C@H](CC(C)C)NC(=O)[C@H](Cc2ccccc2)NC(=O)[C@H](Cc2c[nH]c3ccccc23)NC(=O)[C@@H](N)CC(=O)NCCCC[C@@H](C(=O)O)NC(=O)[C@H](Cc2c[nH]c3ccccc23)NC(=O)[C@H](C)NC(=O)[C@H](CS)NC1=O` [compound 233] (HELM PEPTIDE1{D.W.F.L.I.C.A.W.K}$PEPTIDE1,PEPTIDE1,1:R3-9:R3$$$V2.0), for which the “β-Cat FP Hill slope” value worked out at 0.74 and the Kd is less than 400 nM.
For the compound `CC[C@H](C)[C@@H]1NC(=O)[C@@H](NC(=O)[C@H](CCC(N)=O)NC(=O)[C@H](C)N(C)C(=O)[C@H](Cc2c[nH]c3ccccc23)NC(C)=O)CCCCNC(=O)CC[C@@H](C(=O)N[C@@H](Cc2c[nH]cn2)C(=O)N[C@H](C(=O)N[C@H]2CCC(=O)NCCCC[C@@H](C(N)=O)NC(=O)[C@H](Cc3c[nH]c4ccccc34)NC(=O)[C@H](C(C)C)NC(=O)[C@H](CC(=O)O)NC2=O)C2CCCCC2)NC(=O)[C@H](CC(=O)O)NC(=O)[C@H](CC(C)C)NC1=O` [compound 464] (HELM PEPTIDE1{[ac].W.[meA].Q.K.I.L.D.E.H.[O=C([C@@H](N[*:1])C1CCCCC1)[*:2]].E.D.V.W.K.[am]}$PEPTIDE1,PEPTIDE1,5:R3-9:R3|PEPTIDE1,PEPTIDE1,12:R3-16:R3$$$V2.0; bridges inferred), the “β-Cat FP Hill slope” value stood at 0.7.
With `CSCC[C@H](N)C(=O)N[C@@H](Cc1c[nH]c2ccccc12)C(=O)N[C@@H](Cc1ccccc1)C(=O)N[C@@H](CC(C)C)C(=O)N[C@@H](C)C(=O)N[C@@H](CO)C(=O)N[C@@H](Cc1ccccc1)C(=O)N[C@@H](Cc1c[nH]c2ccccc12)C(=O)NCC(=O)O` [compound 11] (H-MWFLASFWG-OH), the “β-Cat FP Hill slope” value is 1.31 and the dissociation constant Kd is 400 to 1000 nM.
Taken in the same sequence, the figures for `CC[C@H](C)[C@H](NC(=O)[C@H](CC(C)C)NC(=O)[C@H](Cc1ccccc1)NC(=O)[C@H](Cc1c[nH]c2ccccc12)NC(=O)[C@@H](N)CCSC)C(=O)N[C@@H](CO)C(=O)N[C@@H](C)C(=O)N[C@@H](Cc1c[nH]c2ccccc12)C(=O)NCC(=O)O` [compound 9] (H-MWFLISAWG-OH) were 0.51 and 1000 to 10000 nM.
Taken in the same sequence, the figures for `CC[C@H](C)[C@H](NC(=O)[C@H](CC(C)C)NC(=O)[C@H](Cc1ccccc1)NC(=O)[C@H](Cc1c[nH]c2ccccc12)NC(=O)[C@@H](N)CCSC)C(=O)N[C@@H](CO)C(=O)N[C@@H](Cc1ccccc1)C(=O)N[C@@H](C)C(=O)NCC(=O)O` [compound 8] (H-MWFLISFAG-OH) were 1.7 and 1000 to 10000 nM.
The matching figures for `CC[C@H](C)[C@H](NC(=O)[C@H](CO)NC(=O)[C@H](CCC(N)=O)NC(=O)[C@H](C)N(C)C(=O)[C@H](Cc1c[nH]c2ccccc12)NC(C)=O)C(=O)N[C@@H](CC(C)C)C(=O)N[C@@H](CC(=O)O)C(=O)N[C@H]1CCC(=O)NCCCC[C@@H](C(=O)N[C@H](C(=O)N[C@@H](Cc2c[nH]c3ccccc23)C(N)=O)C(C)C)NC(=O)[C@H](CCC(N)=O)NC(=O)[C@H](C2CCCCC2)NC(=O)[C@H](Cc2c[nH]cn2)NC1=O` [compound 466] (HELM PEPTIDE1{[ac].W.[meA].Q.S.I.L.D.E.H.[O=C([C@@H](N[*:1])C1CCCCC1)[*:2]].Q.K.V.W.[am]}$PEPTIDE1,PEPTIDE1,9:R3-13:R3$$$V2.0): 0.72 and less than 400 nM.
Regarding `CC[C@H](C)[C@@H]1NC(=O)[C@H](CC(C)C)NC(=O)[C@@H](NC(C)=O)CCCCNC(=O)C[C@@H](C(=O)O)NC(=O)[C@H](Cc2c[nH]c3ccccc23)NC(=O)[C@H](Cc2ccccc2)NC(=O)[C@H](C)NC1=O` [compound 252] (HELM PEPTIDE1{[ac].K.L.I.A.F.W.D}$PEPTIDE1,PEPTIDE1,2:R3-8:R3$$$V2.0), the Kd was more than 30000 nM.
For `CC[C@H](C)[C@@H]1NC(=O)[C@H](CC(C)C)NC(=O)[C@H](Cc2ccccc2)NC(=O)[C@H](Cc2c[nH]c3ccccc23)NC(=O)CCCCCCCCCNC(=O)[C@H](Cc2c[nH]c3ccccc23)NC(=O)[C@H](C)NC(=O)[C@H](CS)NC1=O` [compound 250] (HELM PEPTIDE1{A.W.[O=C(CCCCCCCCCN[*:1])[*:2]].W.F.L.I.C}$PEPTIDE1,PEPTIDE1,1:R1-8:R2$$$V2.0), the Kd was 1000 to 10000 nM.
For the compound `CC(C)C[C@@H]1NC(=O)[C@H](Cc2ccccc2)NC(=O)[C@H](Cc2c[nH]c3ccccc23)NC(=O)[C@@H](N)CCCCNC(=O)CC[C@@H](C(=O)N[C@@H](CO)C(=O)N[C@@H](Cc2ccccc2)C(=O)N[C@@H](Cc2c[nH]c3ccccc23)C(=O)NCC(=O)O)NC1=O` [compound 231] (HELM PEPTIDE1{K.W.F.L.E.S.F.W.G}$PEPTIDE1,PEPTIDE1,1:R3-5:R3$$$V2.0), the “β-Cat FP Hill slope” value was 0.7 and the Kd was in the range of 1000 to 10000 nM.
Taken in the same sequence, the figures for `CC[C@H](C)[C@H](NC(=O)[C@@H](N)CC(C)C)C(=O)N[C@@H](CO)C(=O)N[C@@H](Cc1ccccc1)C(=O)N[C@@H](Cc1c[nH]c2ccccc12)C(=O)NCC(=O)O` [compound 237] (H-LISFWG-OH) were 0.72 and more than 30000 nM.
